These are literature values, as cited in US7786168B2, “Phenolic acid salts of gabapentin in solid dosage forms and methods of use” (Kiel Laboratories, Inc., priority 2003, dated 2010).

In series [1] the target is gb1a-gb^2 heterodimer and post-synaptic GABAB receptor (Homo sapiens, UniProt Q9UBS5).
For series [2] the following is noted: in water and across a wide range of pH.

gb1a-gb^2 heterodimer and post-synaptic GABAB receptor, sequence (Q9UBS5 15-961 limits assumed): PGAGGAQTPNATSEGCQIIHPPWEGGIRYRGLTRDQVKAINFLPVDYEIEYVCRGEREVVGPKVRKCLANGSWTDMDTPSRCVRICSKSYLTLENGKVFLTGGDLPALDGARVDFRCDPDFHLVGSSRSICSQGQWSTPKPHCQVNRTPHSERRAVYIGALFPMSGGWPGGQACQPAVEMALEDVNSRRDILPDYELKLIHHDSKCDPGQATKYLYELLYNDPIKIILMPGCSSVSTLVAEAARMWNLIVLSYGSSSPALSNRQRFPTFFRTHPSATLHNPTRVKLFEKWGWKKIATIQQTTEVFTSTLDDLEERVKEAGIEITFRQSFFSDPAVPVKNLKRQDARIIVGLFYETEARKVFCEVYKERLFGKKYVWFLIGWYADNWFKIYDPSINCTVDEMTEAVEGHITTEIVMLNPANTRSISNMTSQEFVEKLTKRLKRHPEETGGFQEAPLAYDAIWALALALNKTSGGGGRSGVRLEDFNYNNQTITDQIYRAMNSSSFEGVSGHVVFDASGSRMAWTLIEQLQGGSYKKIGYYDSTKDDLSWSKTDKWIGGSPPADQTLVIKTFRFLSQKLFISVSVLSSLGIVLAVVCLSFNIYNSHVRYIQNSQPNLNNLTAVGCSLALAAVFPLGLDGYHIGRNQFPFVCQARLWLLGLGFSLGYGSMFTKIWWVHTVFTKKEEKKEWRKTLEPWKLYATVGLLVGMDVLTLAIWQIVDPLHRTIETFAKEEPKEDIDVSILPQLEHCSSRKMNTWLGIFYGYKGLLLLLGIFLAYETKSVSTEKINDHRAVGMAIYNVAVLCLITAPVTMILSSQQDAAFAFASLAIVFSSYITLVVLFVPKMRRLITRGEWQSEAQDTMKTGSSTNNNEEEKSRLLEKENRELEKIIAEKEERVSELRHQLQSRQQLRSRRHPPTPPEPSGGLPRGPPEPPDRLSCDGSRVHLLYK
gb1a-gb^2 heterodimer and post-synaptic GABAB receptor, sequence (O75899 42-941 partner): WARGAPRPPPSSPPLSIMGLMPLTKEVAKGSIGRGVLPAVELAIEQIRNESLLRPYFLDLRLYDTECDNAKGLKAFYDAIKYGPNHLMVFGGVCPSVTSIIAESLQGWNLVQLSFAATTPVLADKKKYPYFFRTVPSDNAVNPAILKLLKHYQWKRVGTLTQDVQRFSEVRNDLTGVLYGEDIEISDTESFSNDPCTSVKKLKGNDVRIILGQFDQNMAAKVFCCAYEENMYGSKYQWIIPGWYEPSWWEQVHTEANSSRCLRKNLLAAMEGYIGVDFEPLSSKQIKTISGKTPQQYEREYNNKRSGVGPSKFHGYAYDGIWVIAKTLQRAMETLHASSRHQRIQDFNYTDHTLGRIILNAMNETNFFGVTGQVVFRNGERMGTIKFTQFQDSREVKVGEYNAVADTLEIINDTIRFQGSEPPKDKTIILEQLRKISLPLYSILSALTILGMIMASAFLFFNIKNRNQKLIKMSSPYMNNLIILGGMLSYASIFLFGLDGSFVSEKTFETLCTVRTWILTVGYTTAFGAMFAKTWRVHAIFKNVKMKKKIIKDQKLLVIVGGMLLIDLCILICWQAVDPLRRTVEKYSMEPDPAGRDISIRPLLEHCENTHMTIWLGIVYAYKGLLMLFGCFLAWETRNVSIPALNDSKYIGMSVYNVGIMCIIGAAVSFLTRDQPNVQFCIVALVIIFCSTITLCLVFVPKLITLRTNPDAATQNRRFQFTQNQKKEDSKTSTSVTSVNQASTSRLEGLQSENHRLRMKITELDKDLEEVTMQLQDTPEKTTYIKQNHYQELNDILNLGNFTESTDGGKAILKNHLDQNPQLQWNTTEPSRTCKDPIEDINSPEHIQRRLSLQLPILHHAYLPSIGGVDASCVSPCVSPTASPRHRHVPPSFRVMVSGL

As for `NCC1(CC(=O)O)CCCCC1` [gabapentin, 1-(aminomethyl) cyclohexaneacetic acid], the agonist activity entry in series [1] is on record as “selective agonist”. Moreover, the solubility entry in series [2] was “freely soluble”. In addition, the “time of peak plasma gabapentin concentrations” value (adults, post-dose) was 2 to 3 h. Also, where the note is “after administration of 300 mg, dose-dependent”, the absolute bioavailability entry was “approximately 60%”. For the setting “in vivo”, the metabolism result is “not metabolized” and the route of elimination entry is “eliminated via glomerular filtration”. The “crossing of the blood-brain barrier” value (unlike GABA) was “able to cross the blood-brain barrier”. The plasma protein binding result in the series on plasma proteins is recorded as “does not bind to plasma proteins”.
